Measured values as given in publication PMC6862080, “Blood Compatibility—An Important but Often Forgotten Aspect of the Characterization of Antimicrobial Peptides for Clinical Application” (International Journal of Molecular Sciences, 2019).
Peptide text beside a SMILES is read from it. * marks the point of attachment. Myristoyl = CCCCCCCCCCCCCC(=O)*; Lauroyl = CCCCCCCCCCCC(=O)*; Decanoyl = CCCCCCCCCC(=O)*

How the values were obtained:
E. coli (ATCC 11303) = experiment: microbe, parasite or virus in culture; assay type: cell-based; details: ATCC 11303, pH 7.4
S. aureus (ATCC 12600) = experiment: microbe, parasite or virus in culture; assay type: cell-based; details: ATCC 12600, pH 7.4
erythrocyte membranes [1] = experiment: Hemolysis in whole blood (Kahn method); assay type: cell-based, human
Description: (§1) Hemolysis was tested with fresh citrate anticoagulated blood from healthy volunteers as well as with blood cells which were suspended in phosphate buffered saline (10 mM pH 7.4). Afterwards, 100 μL AMP solution was added to 500 μL blood to finally achieve AMP concentrations of 8, 32, and 128 μg/mL. As the negative and positive control, 100 μL PBS buffer and 100 μL 12% Triton-X buffer was added to 500 μL blood, respectively. After incubation on an orbital shaker for 60 min at 37 °C, the cells were removed by centrifugation and 100 μL of the supernatant were transferred to a 96 well microplate for hemolysis measurement. The hemolysis was calculated from the extinction at the wavelengths 562, 578, and 598 nm with a Synergy 2 microplate reader (BioTek, Winooski, VT, USA) according to the method published by Kahn.

erythrocyte membranes [2] = experiment: Hemolysis in RBC suspended in PBS (Kahn method); assay type: cell-based, human; details: pH 7.4
Description: as §1

platelets [3] = experiment: SEM imaging of platelet morphology in PRP; assay type: cell-based, human; details: 128 μg/mL, 2 h, 37 °C
Description: (§2) Since it was observed that some AMPs are able to activate the plasmatic coagulation system of heparinized and citrate anticoagulated blood, the influence of this peptides on platelets was investigated. For this purpose, fresh heparinized and citrated blood were collected from three donors. The blood was centrifuged at 500 g for 5 min and platelet rich plasma (PRP) was obtained. The PRP was incubated at 37 °C for 2 h with 128 μg/mL AMP, PMB, and LL-37. PRP without any additives served as the control. After incubation, the platelet number was determined by a Sysmex Automated Hematology Analyzer KX-21-N (Kobe, Japan). In addition, the PRP samples were prepared for SEM to visualize the morphology of the thrombocytes. After incubation, 10 μL PRP were diluted with 990 μL PBS (0.01 M) and filtered through a 0.2 μm membrane (Membrane Filter Isopore 0.2 μm, Merck, Darmstadt, Germany). The platelets were retained on the membrane, washed with 1 mL PBS, and fixed with 1 mL glutaraldehyde solution (2.5% glutaraldehyde in physiological saline solution). After an incubation time of 60 min, the samples were dehydrated using a series of ethanol (30%, 50%, 60%, 70%, 80%, 90%, and 100%). Afterwards the samples were dried overnight at RT, sputtered with gold and visualized with a scanning electron microscope (FLEXSem 1000, Hitachi, Japan).

human leukocytes = experiment: Cytotoxicity on leukocytes in whole blood, flow cytometry (7-AAD); assay type: cell-based; details: whole blood, 128 μg/mL, flow cytometry, n = 3
Description: The measurement of the membrane destabilization of leukocytes by AMPs was carried out by flow cytometry. […] Whole blood without AMPs or antibiotics was used as a control. After incubation, the proportion of apoptotic and dead cells was determined by flow cytometry. To achieve this, blood samples were diluted 1:100 with 0.01 M phosphate buffered saline and centrifuged at 300 g for 10 min. The supernatant was removed, and cells were stained with 10 μL CD45 pacific blue (leukocyte marker; Beckman coulter, Brea, CA) and 10 μL 7-AAD (a marker for dead cells; Sigma-Aldrich, Steinheim, Germany) for 15 min at room temperature in the dark. After incubation, 1.8 mL lysis buffer (1:10 dilution in distilled water) was added, mixed, and incubated for 10 min at room temperature in the dark. This was followed by two washing steps (2300 g, 5 min, room temperature) and the cells were resuspended in a final volume of 200 μL 0.01 M PBS for measurement. Flow cytometry was performed using a Gallios flow cytometer (Beckman Coulter, Brea, CA, USA) equipped with 405 nm, 488 nm, and 638 nm lasers and the Kaluza Analysis Software (Beckman Coulter, Brea, CA, USA), which was used for measurement and data analysis. Blood cells which were incubated in 70% methanol before staining served as the positive control and blood cells without any additives were used as the negative control.

LPS from P. aeruginosa = experiment: Endotoxin inactivation in human serum, chromogenic LAL test (P. aeruginosa LPS); assay type: biochemical; details: 500 ng/mL peptide, n = 3
Description: The LPS neutralization study in serum was conducted using a chromogenic Limulus Amebocyte Lysate (LAL) test (Charles River Laboratories, MA, USA). The LAL test is the most established method for quantifying LPS. This method uses amebocyte lysate from Limulus polyphemus, wherein the presence of LPS triggers a defense mechanism that induces coagulation. The LAL test is used successfully for detection of LPS in a wide variety of industrial, pharmaceutical, and research applications, such as water supplies, parenteral fluids, drugs for intravenous administration, and certain biologic fluids (e.g., cerebrospinal fluid). Therefore, serum, which was obtained from freshly drawn blood, was spiked with 500 ng/mL AMPs, PMB or LL-37 before adding 5 ng/mL LPS from E. coli or P. aeruginosa. As positive and negative controls, native serum with and without LPS was used, respectively. Endotoxin activity was measured using the LAL assay according to the manufacturer’s specifications.

platelets [4] = experiment: Platelet activation, platelet count in citrate anticoagulated PRP; assay type: cell-based, human; details: 128 μg/mL, 2 h, 37 °C, Sysmex analyzer, n = 3
Description: as §2

platelets [5] = experiment: Platelet activation, platelet count in heparin anticoagulated PRP; assay type: cell-based, human; details: 128 μg/mL, 2 h, 37 °C, Sysmex analyzer, n = 3
Description: as §2

Compound	Minimal Inhibitory Concentration, E. coli, PBS (E. coli (ATCC 11303))	Minimal Inhibitory Concentration, S. aureus, PBS (S. aureus (ATCC 12600))	Free Hemoglobin, BLOOD, 8 μg/mL (erythrocyte membranes [1])	Free Hemoglobin, BLOOD, 32 μg/mL (erythrocyte membranes [1])	Free Hemoglobin, BLOOD, 128 μg/mL (erythrocyte membranes [1])	Free Hemoglobin, RBC in PBS, 8 μg/mL (erythrocyte membranes [2])	Free Hemoglobin, RBC in PBS, 32 μg/mL (erythrocyte membranes [2])	Platelet morphology by SEM, citrate anticoagulated PRP (in words) (platelets [3])	Cytotoxic effect on leukocytes in whole blood (in words) (human leukocytes)	Reduction of endotoxin activity of P. aeruginosa LPS (LPS from P. aeruginosa; 5 ng/mL LPS)	Reduction of the endotoxin activity in serum vs positive control (in words) (LPS from P. aeruginosa; 5 ng/mL P. aeruginosa LPS)	Platelet count in citrate anticoagulated PRP vs control (in words) (platelets [4])	Platelet count in heparinized PRP vs control (in words) (platelets [5])
H-PFWRIRIRR-NH2 [LF11-322-NH2]	4 µg/mL	4 µg/mL	5.0 ± 5.3 mg/dL	5.9 ± 4.4 mg/dL	2.6 ± 3.7 mg/dL	10.4 ± 2.4 mg/dL	14.2 ± 3.5 mg/dL	strongly change their shape	no cytotoxic properties on leukocytes	–	–	–	–
CCCCCCCCCCCCCC(=O)N[C@@H](Cc1ccccc1)C(=O)N[C@@H](Cc1c[nH]c2ccccc12)C(=O)N[C@@H](CCCNC(=N)N)C(=O)N[C@@H](CCCNC(=N)N)C(=O)N[C@@H](Cc1ccccc1)C(=O)N[C@@H](Cc1c[nH]c2ccccc12)C(=O)N[C@@H](CCCNC(=N)N)C(=O)N[C@@H](CCCNC(=N)N)C(N)=O [LF11-227-C14] (Myristoyl-FWRRFWRR-NH2)	> 128 µg/mL	> 128 µg/mL	3.4 ± 2.1 mg/dL	3.1 ± 0.9 mg/dL	2.6 ± 3.5 mg/dL	18.3 ± 12.8 mg/dL	41.9 ± 19.9 mg/dL	–	–	37 ± 5%	significant (p < 0.05) reduction	–	–
CCCCCCCCCCCC(=O)N1CCC[C@H]1C(=O)N[C@@H](Cc1ccccc1)C(=O)N[C@@H](Cc1c[nH]c2ccccc12)C(=O)N[C@@H](CCCNC(=N)N)C(=O)N[C@H](C(=O)N[C@@H](CCCNC(=N)N)C(=O)N[C@H](C(=O)N[C@@H](CCCNC(=N)N)C(=O)N[C@@H](CCCNC(=N)N)C(N)=O)[C@@H](C)CC)[C@@H](C)CC [LF11-322-C12] (Lauroyl-PFWRIRIRR-NH2)	32 µg/mL	16 µg/mL	2.4 ± 2.6 mg/dL	8.6 ± 8.6 mg/dL	3.2 ± 4.5 mg/dL	15.5 ± 1.2 mg/dL	36.1 ± 2.0 mg/dL	–	–	–	–	significantly reduce the platelet count	no significant difference in platelet count
H-FWRRFWRR-NH2 [LF11-227-NH2]	8 µg/mL	8 µg/mL	2.4 ± 3.1 mg/dL	9.5 ± 12.3 mg/dL	2.5 ± 3.8 mg/dL	10.0 ± 2.2 mg/dL	14.6 ± 3.2 mg/dL	–	–	–	–	–	–
CCCCCCCCCC(=O)N1CCC[C@H]1C(=O)N[C@@H](Cc1ccccc1)C(=O)N[C@@H](Cc1c[nH]c2ccccc12)C(=O)N[C@@H](CCCNC(=N)N)C(=O)N[C@H](C(=O)N[C@@H](CCCNC(=N)N)C(=O)N[C@H](C(=O)N[C@@H](CCCNC(=N)N)C(=O)N[C@@H](CCCNC(=N)N)C(N)=O)[C@@H](C)CC)[C@@H](C)CC [LF11-322-C10] (Decanoyl-PFWRIRIRR-NH2)	8 µg/mL	8 µg/mL	2.5 ± 2.0 mg/dL	6.0 ± 4.6 mg/dL	3.0 ± 4.5 mg/dL	16.6 ± 2.4 mg/dL	48.5 ± 5.5 mg/dL	–	–	–	–	–	–
